Type in all cases: biochemical
The target in test [1] is T1, MMP1 (Homo sapiens, UniProt P03956).
T1 construct: purchased AnaSpec, San Jose, USA
T1 sequence (P03956 100-469): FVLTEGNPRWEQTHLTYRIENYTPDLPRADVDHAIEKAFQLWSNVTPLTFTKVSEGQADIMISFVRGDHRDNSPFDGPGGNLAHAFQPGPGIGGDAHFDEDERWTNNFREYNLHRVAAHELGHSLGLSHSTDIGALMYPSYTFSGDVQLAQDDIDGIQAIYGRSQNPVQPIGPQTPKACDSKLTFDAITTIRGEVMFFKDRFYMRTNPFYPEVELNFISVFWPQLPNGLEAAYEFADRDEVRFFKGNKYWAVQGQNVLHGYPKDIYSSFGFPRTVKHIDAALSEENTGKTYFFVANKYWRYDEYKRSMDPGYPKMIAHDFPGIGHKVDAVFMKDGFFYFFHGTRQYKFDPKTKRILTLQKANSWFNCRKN
Briefly: In vitro fluorometric MMP inhibition assay (SensoLyte 520 MMP-1). The conditions noted are these: mean ± SD of three independent experiments in duplicate. As to the method:
(§1) The inhibitory potency and selective binding of MMP-ligands was investigated by examining their capacity to block MMP1, MMP2 and MMP9 activity, using in vitro fluorometric assays (SensoLyte^TM 520 MMP-1, SensoLyte^TM 520 MMP-2, SensoLyte^TM 520 MMP-9; AnaSpec, San Jose, USA). Assay buffer was warmed to 37°C and used to dilute the reference inhibitor N-isobutyl-N-(4-methoxyphenylsulfonyl)glycyl hydoxamic acid (NNGH 1:100), calibration standard (1:50), substrate and enzyme (1:60). Components were loaded into a 96-well plate. MMP ligands 10a-d were also aliquoted to the respective 96-well plate at varying concentrations (10pM, 100pM, 1nM, 10nM, 100nM, 1μM, 10 μM and 100 μM), followed by incubation at 37°C for 30 minutes. Reactions were initiated by addition of the substrate to the respective wells, after which fluorescence generated was measured using a microplate reader (Synergy HT Multi-detection Microplate Reader, BioTek, […]) continuously for 30 minutes at 60 second intervals. Data analysis was conducted using Sigma Plot and Microsoft Excel.

The target of test [2] is T2, MMP2 (Homo sapiens, UniProt P08253).
T2 construct: purchased AnaSpec, San Jose, USA
T2 sequence (P08253 110-660): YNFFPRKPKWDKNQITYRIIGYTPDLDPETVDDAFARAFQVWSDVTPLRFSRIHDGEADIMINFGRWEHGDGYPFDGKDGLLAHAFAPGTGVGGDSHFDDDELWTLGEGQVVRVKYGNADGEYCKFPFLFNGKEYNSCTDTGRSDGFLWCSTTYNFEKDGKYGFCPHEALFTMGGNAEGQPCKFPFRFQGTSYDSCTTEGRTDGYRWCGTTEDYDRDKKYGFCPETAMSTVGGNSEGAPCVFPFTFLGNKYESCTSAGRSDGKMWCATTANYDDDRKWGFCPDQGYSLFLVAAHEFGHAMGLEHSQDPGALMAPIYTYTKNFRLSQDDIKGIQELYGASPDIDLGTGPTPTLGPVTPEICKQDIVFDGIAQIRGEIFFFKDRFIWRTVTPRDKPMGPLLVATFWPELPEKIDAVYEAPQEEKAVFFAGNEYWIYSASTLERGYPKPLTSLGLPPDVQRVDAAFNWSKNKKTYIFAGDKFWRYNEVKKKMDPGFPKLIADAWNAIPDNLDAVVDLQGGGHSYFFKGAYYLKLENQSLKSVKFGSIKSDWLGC
In words: In vitro fluorometric MMP inhibition assay (SensoLyte 520 MMP-2). The conditions noted are these: for IC50: mean ± SD of three independent experiments in duplicate; for Selectivity MMP1/MMP2: ratio of IC50 values, MMP1 IC50 divided by MMP2 IC50. As to the method:
as §1

In test [3] the target is T3, MMP9 (Homo sapiens, UniProt P14780).
T3 construct: purchased AnaSpec, San Jose, USA
T3 sequence (P14780 94-707, species assumed): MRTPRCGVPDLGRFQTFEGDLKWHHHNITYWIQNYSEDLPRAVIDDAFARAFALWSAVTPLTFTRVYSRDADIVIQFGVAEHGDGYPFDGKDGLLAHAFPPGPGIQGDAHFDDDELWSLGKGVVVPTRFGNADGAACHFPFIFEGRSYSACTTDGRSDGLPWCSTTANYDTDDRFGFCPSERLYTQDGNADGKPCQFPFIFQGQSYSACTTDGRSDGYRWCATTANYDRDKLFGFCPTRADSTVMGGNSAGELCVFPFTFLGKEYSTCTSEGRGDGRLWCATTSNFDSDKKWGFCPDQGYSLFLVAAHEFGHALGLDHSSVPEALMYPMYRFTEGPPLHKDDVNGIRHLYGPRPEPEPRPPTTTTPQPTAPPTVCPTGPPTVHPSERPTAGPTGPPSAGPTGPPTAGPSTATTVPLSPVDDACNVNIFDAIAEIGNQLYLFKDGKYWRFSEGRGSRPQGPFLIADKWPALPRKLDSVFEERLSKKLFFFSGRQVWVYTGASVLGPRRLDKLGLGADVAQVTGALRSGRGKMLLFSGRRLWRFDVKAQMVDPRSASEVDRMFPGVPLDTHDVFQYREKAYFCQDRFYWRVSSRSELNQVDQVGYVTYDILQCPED
In words: In vitro fluorometric MMP inhibition assay (SensoLyte 520 MMP-9). The conditions noted are these: for IC50: mean ± SD of three independent experiments in duplicate; for Selectivity MMP1/MMP9: ratio of IC50 values, MMP1 IC50 divided by MMP9 IC50. The method, then:
as §1

Turning to `O=C(O)CN(CC(=O)NO)S(=O)(=O)c1ccccc1` [Compound 4a, 2-(N-(2(hydroxyamino)-2-oxoethyl)phenylsulfonamido) acetic acid], the IC50 in test [1] stood at 51 ± 0.1 nM. Besides, in test [2], the IC50 was 39 ± 0.16 nM and the “Selectivity MMP1/MMP2” value stood at 1.31. Moreover, in test [3], the IC50 was 14 ± 1.05 nM and the “Selectivity MMP1/MMP9” value came to 3.64.

Take `O=C(O)CN(CC(=O)NO)S(=O)(=O)c1ccc(F)cc1` [Compound 4b, 2-(4-fluoro-N-(2-hydroxyamino)-2oxoethyl)phenylsufonamido acetic acid]: in test [1], the IC50 worked out at 75 ± 0.15 nM. Also, in test [2], the IC50 worked out at 12 ± 0.17 nM and the “Selectivity MMP1/MMP2” value is recorded as 6.25. Further, in test [3], the IC50 amounted to 21 ± 0.19 nM and the “Selectivity MMP1/MMP9” value is reported as 3.57.

For `O=C(O)CN(CC(=O)NO)S(=O)(=O)c1ccc(I)cc1` [Compound 4c, 2-(4-Iodo-N-(2-hydroxyamino)-2-oxoethyl) phenylsufonamido acetic acid], the half-maximal inhibitory concentration (IC50) in test [1] was 59 ± 0.17 nM. Further, in test [2], the IC50 came to 27 ± 1 nM and the “Selectivity MMP1/MMP2” value stood at 2.19. For the same compound, in test [3], the IC50 came out at 11 ± 1.14 nM and the “Selectivity MMP1/MMP9” value was found to be 5.36.

As to `O=C(O)CN(CC(=O)NO)S(=O)(=O)c1ccc(Br)cc1` [Compound 4d, 2-(4-bromo-N-(2-hydroxyamino)-2-oxoethyl) phenylsufonamido acetic acid], in test [1], the IC50 was determined as 63 ± 0.13 nM. In addition, in test [2], the half-inhibitory concentration (IC50) amounted to 19 ± 0.19 nM and the “Selectivity MMP1/MMP2” value is listed as 3.32. In addition, in test [3], the IC50 was found to be 23 ± 0.21 nM and the “Selectivity MMP1/MMP9” value was 2.74.

Regarding `O=C(O)CN(CC(=O)NO)S(=O)(=O)c1ccc(Cl)cc1` [Compound 4e, 2-(4-chloro-N-(2-hydroxyamino)-2-oxoethyl)phenylsufonamido acetic acid], the IC50 in test [1] is 61 ± 0.11 nM. Moreover, in test [2], the IC50 came out at 41 ± 0.19 nM and the “Selectivity MMP1/MMP2” value came out at 1.49. In test [3], the IC50 was 18 ± 0.16 nM and the “Selectivity MMP1/MMP9” value is 3.39.

Take `O=C(O)CN(CC(=O)NO)S(=O)(=O)c1ccc(Oc2ccccc2)cc1` [Compound 10a, ([4-Phenoxy-benzenesulphonyl]-hydroxycarbamoylmethyl-amino) acetic acid]: the “Selectivity MMP1/MMP2” value in test [2] came out at 884. Besides, in test [3], the “Selectivity MMP1/MMP9” value is reported as 387.

Take `O=C(O)CN(CC(=O)NO)S(=O)(=O)c1ccc(Oc2ccc(F)cc2)cc1` [Compound 10b]: the “Selectivity MMP1/MMP2” value in test [2] is 3.60 x 10^4. Besides, the “Selectivity MMP1/MMP9” value in test [3] is 1.74 x 10^4.

For `O=C(O)CN(CC(=O)NO)S(=O)(=O)c1ccc(Oc2ccc(I)cc2)cc1` [Compound 10c, ([4-(4-Iodo-phenoxy)-benzenesulphonyl]-hydroxycarbamoylmethyl-amino) acetic acid], the IC50 is 910 ± 560 nM in test [1], 0.87 ± 0.4 nM in test [2] and 1.95 ± 1.1 nM in test [3]. Further, the “Selectivity MMP1/MMP2” value in test [2] is 1.05 x 10^3. In addition, in test [3], the “Selectivity MMP1/MMP9” value was found to be 467.

Take `O=C(O)CN(CC(=O)NO)S(=O)(=O)c1ccc(Oc2ccc(Br)cc2)cc1` [Compound 10d, ([4-(4-Bromo-phenoxy)-benzenesulphonyl]-hydroxycarbamoylmethyl-amino) acetic acid]: in test [1], the IC50 is 1320 ± 790 nM. Further, in test [2], the IC50 stood at 7.64 ± 1.43 nM and the “Selectivity MMP1/MMP2” value is reported as 173. Besides, in test [3], the IC50 worked out at 1.61 ± 1.41 nM and the “Selectivity MMP1/MMP9” value came to 820.

(Values after publication PMC5708805, “Novel molecular imaging ligands targeting matrix metalloproteinases 2 and 9 for imaging of unstable atherosclerotic plaques” (PLoS ONE, 2017).)
